Source: ChEMBL document CHEMBL3627608, “Crystal structures of human RIP2 kinase catalytic domain complexed with ATP-competitive inhibitors: Foundations for understanding inhibitor selectivity” (Bioorg Med Chem, 2015)

How the values were obtained:
[1] = target: Receptor-interacting serine/threonine-protein kinase 2 (Homo sapiens, UniProt O43353); experiment: Inhibition of full-length FLAG-6His-TEV tagged human RIP2 expressed in Sf9 cells assessed as dissociation rate by fluorescent polarization assay
[2] = target: T1, Protein kinase C epsilon type (Homo sapiens) (UniProt Q02156); experiment: Inhibition of PKCepsilon (unknown origin) at 10 uM after 120 mins P33 radiolabeled kinase activity assay
T1 sequence (whole entry): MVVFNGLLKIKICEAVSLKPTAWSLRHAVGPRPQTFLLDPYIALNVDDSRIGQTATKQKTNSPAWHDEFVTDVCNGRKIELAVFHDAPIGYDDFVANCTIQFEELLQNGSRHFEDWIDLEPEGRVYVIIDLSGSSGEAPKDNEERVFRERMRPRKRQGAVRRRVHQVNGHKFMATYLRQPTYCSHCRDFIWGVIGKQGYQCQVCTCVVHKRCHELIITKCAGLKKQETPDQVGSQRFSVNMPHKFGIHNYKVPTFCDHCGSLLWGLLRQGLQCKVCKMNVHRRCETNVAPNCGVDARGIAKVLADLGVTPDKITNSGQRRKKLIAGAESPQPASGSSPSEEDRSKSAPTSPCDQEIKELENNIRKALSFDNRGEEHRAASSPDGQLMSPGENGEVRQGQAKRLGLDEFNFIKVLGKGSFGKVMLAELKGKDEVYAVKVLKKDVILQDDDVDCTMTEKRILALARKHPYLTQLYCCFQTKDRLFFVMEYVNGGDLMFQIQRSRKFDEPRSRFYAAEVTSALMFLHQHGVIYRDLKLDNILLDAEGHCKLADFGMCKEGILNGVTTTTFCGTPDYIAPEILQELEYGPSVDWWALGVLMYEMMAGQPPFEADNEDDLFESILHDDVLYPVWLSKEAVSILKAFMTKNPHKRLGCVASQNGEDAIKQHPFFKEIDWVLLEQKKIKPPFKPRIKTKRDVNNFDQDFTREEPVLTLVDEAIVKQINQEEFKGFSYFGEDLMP

[3] = target: Leukocyte tyrosine kinase receptor (Homo sapiens) (UniProt P29376); experiment: Inhibition of TYK1 (unknown origin) at 10 uM after 120 mins P33 radiolabeled kinase activity assay
[4] = target: Leucine-rich repeat serine/threonine-protein kinase 2 (Homo sapiens) (UniProt Q5S007); experiment: Inhibition of LRRK2 (unknown origin) at 10 uM after 120 mins P33 radiolabeled kinase activity assay
Chain of Leucine-rich repeat serine/threonine-protein kinase 2 (Homo sapiens) (Q5S007 whole entry): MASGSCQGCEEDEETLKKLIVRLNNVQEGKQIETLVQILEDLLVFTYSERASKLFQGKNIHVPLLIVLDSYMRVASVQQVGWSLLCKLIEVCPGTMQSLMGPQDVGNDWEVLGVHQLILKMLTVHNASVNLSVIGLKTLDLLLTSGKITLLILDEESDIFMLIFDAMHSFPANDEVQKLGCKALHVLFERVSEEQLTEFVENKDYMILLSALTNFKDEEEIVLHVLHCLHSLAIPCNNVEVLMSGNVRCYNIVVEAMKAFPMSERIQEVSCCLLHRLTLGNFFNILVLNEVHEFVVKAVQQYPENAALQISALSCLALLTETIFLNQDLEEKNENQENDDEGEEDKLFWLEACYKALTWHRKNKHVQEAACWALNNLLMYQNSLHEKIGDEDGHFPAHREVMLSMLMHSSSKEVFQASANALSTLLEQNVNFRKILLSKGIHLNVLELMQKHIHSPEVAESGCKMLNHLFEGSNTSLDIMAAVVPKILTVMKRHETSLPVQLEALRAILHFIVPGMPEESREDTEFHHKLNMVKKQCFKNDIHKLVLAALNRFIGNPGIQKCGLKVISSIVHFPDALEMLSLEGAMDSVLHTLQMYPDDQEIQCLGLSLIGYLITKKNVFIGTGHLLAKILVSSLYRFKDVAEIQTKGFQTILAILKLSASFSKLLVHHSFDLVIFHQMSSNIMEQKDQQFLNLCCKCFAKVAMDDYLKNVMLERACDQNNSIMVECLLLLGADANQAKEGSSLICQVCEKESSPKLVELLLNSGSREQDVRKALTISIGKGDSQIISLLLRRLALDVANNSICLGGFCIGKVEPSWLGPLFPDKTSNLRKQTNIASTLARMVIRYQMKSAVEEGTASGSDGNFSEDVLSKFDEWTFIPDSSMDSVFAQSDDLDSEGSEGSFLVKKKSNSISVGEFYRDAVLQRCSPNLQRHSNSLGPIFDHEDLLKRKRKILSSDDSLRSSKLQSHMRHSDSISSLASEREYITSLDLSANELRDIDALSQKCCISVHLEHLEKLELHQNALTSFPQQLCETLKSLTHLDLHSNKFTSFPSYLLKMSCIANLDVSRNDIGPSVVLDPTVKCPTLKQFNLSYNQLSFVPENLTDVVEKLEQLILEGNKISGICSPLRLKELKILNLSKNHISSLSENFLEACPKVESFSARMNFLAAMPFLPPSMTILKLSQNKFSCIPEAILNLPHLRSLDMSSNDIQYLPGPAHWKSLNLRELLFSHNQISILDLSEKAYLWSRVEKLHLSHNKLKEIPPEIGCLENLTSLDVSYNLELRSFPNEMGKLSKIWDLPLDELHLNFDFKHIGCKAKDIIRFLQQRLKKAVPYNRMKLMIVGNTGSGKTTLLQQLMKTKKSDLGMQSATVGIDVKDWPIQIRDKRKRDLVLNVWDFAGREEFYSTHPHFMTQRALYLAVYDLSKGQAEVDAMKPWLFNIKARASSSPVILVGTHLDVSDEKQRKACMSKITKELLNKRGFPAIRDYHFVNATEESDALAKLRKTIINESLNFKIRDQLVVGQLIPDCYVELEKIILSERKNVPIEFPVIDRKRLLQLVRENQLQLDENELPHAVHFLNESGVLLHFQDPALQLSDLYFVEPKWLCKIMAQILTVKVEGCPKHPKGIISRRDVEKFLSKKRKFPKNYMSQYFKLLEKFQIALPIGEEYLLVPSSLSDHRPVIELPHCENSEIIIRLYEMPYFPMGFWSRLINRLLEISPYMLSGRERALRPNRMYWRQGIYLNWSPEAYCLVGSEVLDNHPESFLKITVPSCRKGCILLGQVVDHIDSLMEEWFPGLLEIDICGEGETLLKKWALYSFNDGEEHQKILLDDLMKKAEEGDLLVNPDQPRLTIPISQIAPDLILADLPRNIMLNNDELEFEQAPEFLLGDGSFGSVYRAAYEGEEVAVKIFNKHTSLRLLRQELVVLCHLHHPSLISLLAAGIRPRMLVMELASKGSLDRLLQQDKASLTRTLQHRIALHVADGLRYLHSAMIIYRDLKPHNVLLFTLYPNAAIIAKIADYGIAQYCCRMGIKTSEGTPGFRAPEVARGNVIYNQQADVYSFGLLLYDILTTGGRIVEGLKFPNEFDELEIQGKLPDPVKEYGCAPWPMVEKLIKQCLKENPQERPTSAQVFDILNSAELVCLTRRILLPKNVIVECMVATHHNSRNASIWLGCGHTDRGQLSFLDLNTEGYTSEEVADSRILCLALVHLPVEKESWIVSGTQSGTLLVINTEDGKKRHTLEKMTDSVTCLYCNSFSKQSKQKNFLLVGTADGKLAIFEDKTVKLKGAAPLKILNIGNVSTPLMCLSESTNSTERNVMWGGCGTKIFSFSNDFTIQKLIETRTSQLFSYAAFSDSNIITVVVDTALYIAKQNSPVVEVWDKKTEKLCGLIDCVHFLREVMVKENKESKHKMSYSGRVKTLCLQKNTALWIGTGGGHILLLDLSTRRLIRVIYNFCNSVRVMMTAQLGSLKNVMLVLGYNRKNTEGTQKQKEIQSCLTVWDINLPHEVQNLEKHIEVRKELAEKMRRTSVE

[5] = target: CDK9/Cyclin K (Homo sapiens) (UniProt P50750+O75909); experiment: Inhibition of CDK9/cyclin K (unknown origin) at 10 uM after 120 mins P33 radiolabeled kinase activity assay; type: protein-complex assay
[6] = target: T2, Rhodopsin kinase GRK7 (Homo sapiens) (UniProt Q8WTQ7); experiment: Inhibition of GRK7 (unknown origin) at 10 uM after 120 mins P33 radiolabeled kinase activity assay
T2 sequence (whole entry): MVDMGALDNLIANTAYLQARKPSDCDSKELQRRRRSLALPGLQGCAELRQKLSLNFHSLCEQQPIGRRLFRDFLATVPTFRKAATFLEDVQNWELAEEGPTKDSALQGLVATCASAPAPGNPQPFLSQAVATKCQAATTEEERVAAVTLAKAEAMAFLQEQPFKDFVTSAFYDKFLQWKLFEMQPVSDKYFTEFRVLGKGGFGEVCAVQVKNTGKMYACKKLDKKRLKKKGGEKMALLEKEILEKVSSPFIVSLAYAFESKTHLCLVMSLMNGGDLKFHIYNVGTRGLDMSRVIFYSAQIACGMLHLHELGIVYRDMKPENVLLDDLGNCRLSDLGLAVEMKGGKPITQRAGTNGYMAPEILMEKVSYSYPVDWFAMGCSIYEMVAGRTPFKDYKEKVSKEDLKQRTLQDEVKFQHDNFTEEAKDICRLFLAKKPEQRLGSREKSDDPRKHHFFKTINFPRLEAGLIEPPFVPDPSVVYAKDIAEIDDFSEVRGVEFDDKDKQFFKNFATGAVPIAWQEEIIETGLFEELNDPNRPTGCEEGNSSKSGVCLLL

[7] = target: T3, Serine/threonine-protein kinase haspin (Homo sapiens) (UniProt Q8TF76); experiment: Inhibition of Haspin (unknown origin) at 10 uM after 120 mins P33 radiolabeled kinase activity assay
T3 sequence (whole entry): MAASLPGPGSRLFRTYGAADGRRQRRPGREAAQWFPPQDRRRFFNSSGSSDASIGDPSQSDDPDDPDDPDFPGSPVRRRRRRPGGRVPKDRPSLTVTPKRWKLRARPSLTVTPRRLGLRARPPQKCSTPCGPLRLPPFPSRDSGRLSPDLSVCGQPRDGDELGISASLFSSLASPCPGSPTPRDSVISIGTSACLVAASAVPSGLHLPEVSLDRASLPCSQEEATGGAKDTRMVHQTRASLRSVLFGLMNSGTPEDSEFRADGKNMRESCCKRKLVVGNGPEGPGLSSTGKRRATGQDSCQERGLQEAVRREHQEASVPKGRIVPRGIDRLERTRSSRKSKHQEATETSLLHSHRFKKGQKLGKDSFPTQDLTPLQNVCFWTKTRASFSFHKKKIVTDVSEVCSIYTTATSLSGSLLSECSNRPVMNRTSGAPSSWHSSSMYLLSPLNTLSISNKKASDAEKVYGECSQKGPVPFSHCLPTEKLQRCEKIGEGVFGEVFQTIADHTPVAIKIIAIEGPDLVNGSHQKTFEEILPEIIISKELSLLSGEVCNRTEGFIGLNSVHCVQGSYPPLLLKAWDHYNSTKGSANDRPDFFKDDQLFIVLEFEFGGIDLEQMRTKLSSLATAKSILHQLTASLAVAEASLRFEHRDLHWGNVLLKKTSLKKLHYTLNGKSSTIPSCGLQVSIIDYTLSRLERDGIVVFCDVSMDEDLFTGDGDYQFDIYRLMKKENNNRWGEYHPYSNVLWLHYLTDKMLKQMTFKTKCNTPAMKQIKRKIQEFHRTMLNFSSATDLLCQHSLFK

[8] = target: Tyrosine-protein kinase Fes/Fps (Homo sapiens) (UniProt P07332); experiment: Inhibition of FES (unknown origin) at 10 uM after 120 mins P33 radiolabeled kinase activity assay
Chain of Tyrosine-protein kinase Fes/Fps (Homo sapiens) (P07332 whole entry): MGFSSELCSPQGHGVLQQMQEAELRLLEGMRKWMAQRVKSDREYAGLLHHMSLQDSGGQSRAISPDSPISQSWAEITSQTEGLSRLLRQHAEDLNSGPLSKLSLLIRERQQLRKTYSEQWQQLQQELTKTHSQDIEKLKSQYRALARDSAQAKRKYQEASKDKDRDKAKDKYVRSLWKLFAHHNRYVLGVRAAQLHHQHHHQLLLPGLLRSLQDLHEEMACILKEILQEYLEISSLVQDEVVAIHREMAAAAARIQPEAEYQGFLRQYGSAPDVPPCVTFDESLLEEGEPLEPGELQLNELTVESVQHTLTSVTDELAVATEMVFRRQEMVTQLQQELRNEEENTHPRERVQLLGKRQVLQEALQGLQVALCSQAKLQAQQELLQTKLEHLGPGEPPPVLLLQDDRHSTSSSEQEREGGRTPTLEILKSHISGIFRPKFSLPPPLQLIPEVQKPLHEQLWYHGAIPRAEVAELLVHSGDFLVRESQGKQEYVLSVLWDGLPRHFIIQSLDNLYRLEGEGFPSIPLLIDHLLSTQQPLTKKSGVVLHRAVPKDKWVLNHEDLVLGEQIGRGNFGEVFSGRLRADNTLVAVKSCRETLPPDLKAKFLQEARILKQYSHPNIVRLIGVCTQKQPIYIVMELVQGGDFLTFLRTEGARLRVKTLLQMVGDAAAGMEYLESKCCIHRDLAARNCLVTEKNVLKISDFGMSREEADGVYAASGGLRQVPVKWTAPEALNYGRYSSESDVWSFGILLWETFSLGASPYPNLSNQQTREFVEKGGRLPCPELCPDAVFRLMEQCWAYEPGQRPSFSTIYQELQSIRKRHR

[9] = target: Serine/threonine-protein kinase NIM1 (Homo sapiens) (UniProt Q8IY84); experiment: Inhibition of NIM1 (unknown origin) at 10 uM after 120 mins P33 radiolabeled kinase activity assay
Chain of Serine/threonine-protein kinase NIM1 (Homo sapiens) (Q8IY84 whole entry): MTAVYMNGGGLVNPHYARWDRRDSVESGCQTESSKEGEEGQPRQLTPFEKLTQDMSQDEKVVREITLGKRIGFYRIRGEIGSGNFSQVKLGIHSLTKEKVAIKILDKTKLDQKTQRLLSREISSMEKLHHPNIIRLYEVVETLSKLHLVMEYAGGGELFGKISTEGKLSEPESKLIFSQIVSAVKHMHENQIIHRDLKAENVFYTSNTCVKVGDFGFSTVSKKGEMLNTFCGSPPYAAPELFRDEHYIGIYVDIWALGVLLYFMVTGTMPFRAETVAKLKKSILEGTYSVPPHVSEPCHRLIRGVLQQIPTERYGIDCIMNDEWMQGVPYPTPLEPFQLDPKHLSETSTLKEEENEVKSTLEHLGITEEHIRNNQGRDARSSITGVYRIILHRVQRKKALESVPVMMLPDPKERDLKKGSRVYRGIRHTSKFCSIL

[10] = target: Vascular endothelial growth factor receptor 3 (Homo sapiens) (UniProt P35916); experiment: Inhibition of FLT4 (unknown origin) at 10 uM after 120 mins P33 radiolabeled kinase activity assay
Chain of Vascular endothelial growth factor receptor 3 (Homo sapiens) (P35916 whole entry): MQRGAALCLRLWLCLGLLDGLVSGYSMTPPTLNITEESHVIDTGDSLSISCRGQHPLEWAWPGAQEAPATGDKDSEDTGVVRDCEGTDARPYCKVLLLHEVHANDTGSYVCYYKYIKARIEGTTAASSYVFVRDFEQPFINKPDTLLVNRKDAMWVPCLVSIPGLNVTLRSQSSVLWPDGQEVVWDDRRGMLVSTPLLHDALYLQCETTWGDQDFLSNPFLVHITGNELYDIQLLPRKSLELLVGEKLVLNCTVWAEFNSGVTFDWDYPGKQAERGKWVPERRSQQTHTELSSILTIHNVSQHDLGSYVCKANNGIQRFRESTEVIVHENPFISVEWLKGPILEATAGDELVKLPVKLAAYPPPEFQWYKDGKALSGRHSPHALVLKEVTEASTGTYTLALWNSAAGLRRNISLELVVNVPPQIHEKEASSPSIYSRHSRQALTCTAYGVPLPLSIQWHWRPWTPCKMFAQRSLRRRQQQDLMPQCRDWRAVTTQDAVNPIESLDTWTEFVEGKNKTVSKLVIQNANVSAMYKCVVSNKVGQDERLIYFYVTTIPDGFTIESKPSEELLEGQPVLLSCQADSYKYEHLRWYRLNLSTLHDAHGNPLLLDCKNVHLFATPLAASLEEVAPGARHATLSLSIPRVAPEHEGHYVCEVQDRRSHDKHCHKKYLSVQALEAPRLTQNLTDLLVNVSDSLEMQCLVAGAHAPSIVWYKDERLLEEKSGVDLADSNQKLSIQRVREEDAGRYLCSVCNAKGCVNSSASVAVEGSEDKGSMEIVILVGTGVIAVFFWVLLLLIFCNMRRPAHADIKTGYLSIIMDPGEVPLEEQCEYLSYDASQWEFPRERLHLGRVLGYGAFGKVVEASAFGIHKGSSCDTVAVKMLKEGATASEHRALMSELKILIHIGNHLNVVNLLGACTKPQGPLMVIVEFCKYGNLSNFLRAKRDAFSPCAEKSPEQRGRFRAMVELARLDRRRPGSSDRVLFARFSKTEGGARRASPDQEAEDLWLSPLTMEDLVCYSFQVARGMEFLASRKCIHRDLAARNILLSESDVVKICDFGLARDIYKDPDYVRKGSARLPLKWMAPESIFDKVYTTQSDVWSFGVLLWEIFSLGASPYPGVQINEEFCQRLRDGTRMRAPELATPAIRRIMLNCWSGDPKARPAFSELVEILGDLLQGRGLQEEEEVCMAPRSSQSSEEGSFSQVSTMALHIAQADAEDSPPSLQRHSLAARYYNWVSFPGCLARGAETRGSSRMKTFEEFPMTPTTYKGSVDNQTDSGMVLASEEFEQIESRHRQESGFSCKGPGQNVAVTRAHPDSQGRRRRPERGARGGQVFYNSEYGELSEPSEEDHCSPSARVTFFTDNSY

SMILES | K [1] [s⁻¹] | inhibition [2] [%] | inhibition [3] [%] | inhibition [4] [%] | inhibition [5] [%] | inhibition [6] [%] | inhibition [7] [%] | inhibition [8] [%] | inhibition [9] [%] | inhibition [10] [%]
CS(=O)(=O)c1cccc(Nc2nccc(-c3sc(N4CCOCC4)nc3-c3cccc(NS(=O)(=O)c4c(F)cccc4F)c3)n2)c1 | 0.000147 | -0.59 | 7.78 | 63.4 | 6.34 | 25.3 | 12.1 | 42.4 | 5.74 | 99.5
COCCNC(=O)c1ccc2c(c1)nc(-c1cnc(-c3ccc(Cl)cc3)[nH]1)n2CCOC | 0.12 | 1.13 | 4.59 | 17.1 | 3.39 | 2.32 | 11.4 | 16.4 | 3.72 | 13.7
CC(C)(C)c1cc(NC(=O)Nc2ccc(Oc3ccncc3)cc2)no1 | 0.000135 | 0.69 | 35.5 | 81.5 | 37 | 2.1 | 12.3 | 33.8 | 4.76 | 98.9
